Laboratory results taken from US20230279002A1, “Polymorphs of Crystalline Forms of 3,10-dimethoxy-5,8,13,13a-tetrahydro-6H-isoquinolino[3,2-a]isoquinolin-9-yl 3-fluorobenzenesulfonate and Salts Thereof” (CVI Pharmaceuticals Limited, priority 2020, published 2023).
“Also recorded” adds a separate entry of the source.

How the values were obtained:
Format in all cases: physicochemical
[1] = DVS (Dynamic Vapor Sorption) moisture sorption/desorption, hygroscopicity classification; conditions: 25 °C; for Change In Mass (%) - ref, Desorption / Change In Mass (%) - ref, Sorption / Change In Mass (%) - ref, Hysteresis: Cycle 1
Procedure: DVS (Dynamic Vapor Sorption): Around 10-20 mg of samples were used to test its moisture sorption/desorption profiles at 25° C. under 0%˜95%˜0% relative humidity (RH) cycle using dm/dt: 0.01%/min equilibrium and a measurement step of 5% RH.
Hygroscopicity Classification: Typical %-moisture gain as a function of increased RH was determined by DVS. Samples went through a dynamic test isothermally at 25° C. The test was divided into 2 processes, one was absorption process, the other was desorption process. RH ranged from 0% to 95% with 5% RH for each step, and when dm/dt<=0.01%, it was assumed the water sorption/desorption equilibrium is reached.

[2] = Solubility in SGF, FaSSIF, FeSSIF, 0.1M HCl, pH 4.5 and pH 6.8 aqueous at 25° C. (HPLC); conditions: for Solubility conc.(mg/ml): solubility of salts transformed to freebase; for Final pH: solubility test
Procedure: Solubility: Excess drug substance was equilibrated with SGF (Simulated Gastric Fluid), FaSSIF (Simulated Small Intestinal Fluid under Fasted state), FeSSIF (Simulated Small Intestinal Fluid under Fed state), 0.1M HCl, pH 4.5 aqueous, and pH 6.8 aqueous at 25° C. After stirring for 20˜24 h, each sample was filtered, diluted appropriately and analyzed by HPLC. The experiment was terminated once a solubility target of 5 mg/mL was reached.

[3] = Solid stability at 40° C./0% RH (closed) and 40° C./75% RH (open), HPLC; conditions: for 0 day % remaining / 7 day % remaining / 21 day % remaining: solid
In short: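 Solid compound (5 mg) stored in the dark at 40 °C/0% RH in closed vials and at 40 °C/75% RH open. Samples analysed by HPLC at day 0, 5 and 10, or at days 0, 7 and 21, depending on the study.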

[4] = Solution stability in 0.1 N HCl, pH 4.5 buffer and pH 6.8 buffer at 25° C. and 37° C., HPLC
Procedure: Solution stability: A stock solution of compound (1.0 mg/mL) in MeOH was diluted with 0.1 N HCl, pH 4.5 buffer (acetate) and pH 6.8 buffer to reach constant ionic strength of 0.15 M and the same final concentration (50 μg/mL, 40% MeOH).
A stock solution of 1b and 3b (1.0 mg/mL) in MeOH was diluted with pH 6.8 buffer to reach constant ionic strength of 0.15M and the same final concentration (25 μg/mL, 40% […]).
The solutions were stored at 25° C. and 37° C.

[5] = TGA (Thermal Gravimetric Analysis) weight loss; conditions: room temperature to 120° C.
Procedure: TGA (Thermal Gravimetric Analysis): Samples of compounds (4˜6 mg) were weighed into the pan, and heated under nitrogen purge using a ramp rate of 20° C./min over the range of 30° C.˜350° C.

## 3,10-dimethoxy-5,8,13,13a-tetrahydro-6H-isoquinolino[3,2-a]isoquinolin-9-yl 3-fluorobenzenesulfonate [Compound 1b]
[1]
  Hygroscopicity classification by DVS: non-hygroscopic; also recorded: not hygroscopic
[1]; Target RH 0.0 %
  Change In Mass (%) - ref, Desorption: 0.0000%
  Change In Mass (%) - ref, Sorption: 0.0000%
[1]; Target RH 5.0 %
  Change In Mass (%) - ref, Desorption: 0.0094%
  Change In Mass (%) - ref, Hysteresis: 0.0031%
  Change In Mass (%) - ref, Sorption: 0.0063%
[1]; Target RH 10.0 %
  Change In Mass (%) - ref, Desorption: 0.0157%
  Change In Mass (%) - ref, Hysteresis: 0.0052%
  Change In Mass (%) - ref, Sorption: 0.0104%
[1]; Target RH 15.0 %
  Change In Mass (%) - ref, Desorption: 0.0198%
  Change In Mass (%) - ref, Hysteresis: 0.0063%
  Change In Mass (%) - ref, Sorption: 0.0136%
[1]; Target RH 20.0 %
  Change In Mass (%) - ref, Desorption: 0.0251%
  Change In Mass (%) - ref, Hysteresis: 0.0073%
  Change In Mass (%) - ref, Sorption: 0.0178%
[1]; Target RH 25.0 %
  Change In Mass (%) - ref, Desorption: 0.0292%
  Change In Mass (%) - ref, Hysteresis: 0.0084%
  Change In Mass (%) - ref, Sorption: 0.0209%
[1]; Target RH 30.0 %
  Change In Mass (%) - ref, Desorption: 0.0334%
  Change In Mass (%) - ref, Hysteresis: 0.0104%
  Change In Mass (%) - ref, Sorption: 0.0230%
[1]; Target RH 35.0 %
  Change In Mass (%) - ref, Desorption: 0.0386%
  Change In Mass (%) - ref, Hysteresis: 0.0125%
  Change In Mass (%) - ref, Sorption: 0.0261%
[1]; Target RH 40.0 %
  Change In Mass (%) - ref, Desorption: 0.0449%
  Change In Mass (%) - ref, Hysteresis: 0.0094%
  Change In Mass (%) - ref, Sorption: 0.0355%
[1]; Target RH 45.0 %
  Change In Mass (%) - ref, Desorption: 0.0501%
  Change In Mass (%) - ref, Hysteresis: 0.0104%
  Change In Mass (%) - ref, Sorption: 0.0397%
[1]; Target RH 50.0 %
  Change In Mass (%) - ref, Desorption: 0.0543%
  Change In Mass (%) - ref, Hysteresis: 0.0115%
  Change In Mass (%) - ref, Sorption: 0.0428%
[1]; Target RH 55.0 %
  Change In Mass (%) - ref, Desorption: 0.0606%
  Change In Mass (%) - ref, Hysteresis: 0.0146%
  Change In Mass (%) - ref, Sorption: 0.0460%
[1]; Target RH 60.0 %
  Change In Mass (%) - ref, Desorption: 0.0658%
  Change In Mass (%) - ref, Hysteresis: 0.0178%
  Change In Mass (%) - ref, Sorption: 0.0480%
[1]; Target RH 65.0 %
  Change In Mass (%) - ref, Desorption: 0.0689%
  Change In Mass (%) - ref, Hysteresis: 0.0178%
  Change In Mass (%) - ref, Sorption: 0.0512%
[1]; Target RH 70.0 %
  Change In Mass (%) - ref, Desorption: 0.0731%
  Change In Mass (%) - ref, Hysteresis: 0.0157%
  Change In Mass (%) - ref, Sorption: 0.0574%
[1]; Target RH 75.0 %
  Change In Mass (%) - ref, Desorption: 0.0794%
  Change In Mass (%) - ref, Hysteresis: 0.0146%
  Change In Mass (%) - ref, Sorption: 0.0648%
[1]; Target RH 80.0 %
  Change In Mass (%) - ref, Desorption: 0.0857%
  Change In Mass (%) - ref, Hysteresis: 0.0136%
  Change In Mass (%) - ref, Sorption: 0.0721%
[1]; Target RH 85.0 %
  Change In Mass (%) - ref, Desorption: 0.0940%
  Change In Mass (%) - ref, Hysteresis: 0.0136%
  Change In Mass (%) - ref, Sorption: 0.0804%
[1]; Target RH 90.0 %
  Change In Mass (%) - ref, Desorption: 0.1065%
  Change In Mass (%) - ref, Hysteresis: 0.0115%
  Change In Mass (%) - ref, Sorption: 0.0951%
[1]; Target RH 95.0 %
  Change In Mass (%) - ref, Desorption: 0.1159%
  Change In Mass (%) - ref, Sorption: 0.1159%
[1]; at 95% RH
  moisture picked up (DVS): ~0.2%
[2]; 0.1N HCL
  Solubility conc.(mg/ml): 0.605 mg/mL
  Final pH: 1.68
[2]; FaSSIF
  Solubility conc.(mg/ml): 0.007 mg/mL
  Final pH: 6.52
[2]; FeSSIF
  Solubility conc.(mg/ml): 0.009 mg/mL
  Final pH: 5.14
[2]; SGF
  Solubility conc.(mg/ml): 0.588 mg/mL
  Final pH: 1.67
[2]; Water
  Solubility conc.(mg/ml): 0.008 mg/mL
  Final pH: 5.42
[2]; pH 4.5 Acetate Buffer (USP)
  Solubility conc.(mg/ml): 0.008 mg/mL
  Final pH: 4.59
[2]; pH 6.8 Phosphate Buffer (USP)
  Solubility conc.(mg/ml): 0.011 mg/mL
  Final pH: 6.91
[3]; 40° C./0% RH (closed) and 40° C./75% RH (open), dark, up to 3 weeks
  Solid-state stability (HPLC): substantially stable
[3]; 40° C. (0% RH, closed)
  0 day % remaining: 100.0%
  7 day % remaining: 99.3%
  21 day % remaining: 98.4%
[3]; 40° C./75% RH (open)
  0 day % remaining: 100.0%
  7 day % remaining: 99.2%
  21 day % remaining: 102.0%
[4]; 25° C., 0.1N HCL, 0 h, 50 μg/mL, 40% MeOH
  Remaining %: 100.00%
[4]; 25° C., 0.1N HCL, 3 h, 50 μg/mL, 40% MeOH
  Remaining %: 100.53%
[4]; 25° C., 0.1N HCL, 24 h, 50 μg/mL, 40% MeOH
  Remaining %: 100.88%
[4]; 25° C., 24 h, 0.1N HCl, pH 4.5 buffer
  Solution stability: stable
[4]; 25° C., 24 h, pH 6.8 buffer
  Solution stability: clear degradations
[4]; 25° C., pH 4.5, 0 h, 50 μg/mL, 40% MeOH
  Remaining %: 100.00%
[4]; 25° C., pH 4.5, 3 h, 50 μg/mL, 40% MeOH
  Remaining %: 99.94%
[4]; 25° C., pH 4.5, 24 h, 50 μg/mL, 40% MeOH
  Remaining %: 98.79%
[4]; 25° C., pH 6.8*, 0 h, final conc. 25 μg/mL with 40% DMSO
  Remaining %: 100.00%
[4]; 25° C., pH 6.8*, 3 h, final conc. 25 μg/mL with 40% DMSO
  Remaining %: 99.18%
[4]; 25° C., pH 6.8*, 24 h, final conc. 25 μg/mL with 40% DMSO
  Remaining %: 91.23%
[4]; 37° C., 0.1N HCL, 0 h, 50 μg/mL, 40% MeOH
  Remaining %: 100.00%
[4]; 37° C., 0.1N HCL, 3 h, 50 μg/mL, 40% MeOH
  Remaining %: 101.92%
[4]; 37° C., 0.1N HCL, 24 h, 50 μg/mL, 40% MeOH
  Remaining %: 100.14%
[4]; 37° C., 24 h, 0.1N HCl, pH 4.5 buffer
  Solution stability: stable
[4]; 37° C., 24 h, pH 6.8 buffer
  Solution stability: decomposed
[4]; 37° C., pH 4.5, 0 h, 50 μg/mL, 40% MeOH
  Remaining %: 100.00%
[4]; 37° C., pH 4.5, 3 h, 50 μg/mL, 40% MeOH
  Remaining %: 99.51%
[4]; 37° C., pH 4.5, 24 h, 50 μg/mL, 40% MeOH
  Remaining %: 98.83%
[4]; 37° C., pH 6.8*, 0 h, final conc. 25 μg/mL with 40% DMSO
  Remaining %: 100.00%
[4]; 37° C., pH 6.8*, 3 h, final conc. 25 μg/mL with 40% DMSO
  Remaining %: 98.97%
[4]; 37° C., pH 6.8*, 24 h, final conc. 25 μg/mL with 40% DMSO
  Remaining %: 94.70%
[5]
  TGA weight loss (in words): almost no weight loss
